Assays:
[1] = test system: hypothalamus-pituitary-adrenal (HPA)-axis activity; experiment: Basal and novelty stress-induced HPA-axis activity (ACTH, corticosterone, pituitary Pomc, adrenal weight); type: in vivo, C57Bl/6J mice
Method: (§1) All studies involving animals were approved by the institutional ethics committee on animal care and experimentation at the Leiden University Medical Center. The 8-week old male C57Bl/6J mice (Charles River) were housed in ventilated cages with a 12 h light:12 h darkness regime and ad libitum access to food and water. In the acute corticosterone exposure experiments, mice received a synthetic chow diet (Research Diets, New Brunswick, NJ, USA) containing vehicle or CORT125281 (6, 20 or 60 mg/kg/day, Corcept Therapeutics, Menlo Park, CA, USA) for 6 days. […] Mice were treated daily with vehicle, 60 mg/kg mifepristone (Corcept Therapeutics) or 60 mg/kg CORT125281 (dissolved in PBS with 0.1% Tween 80 and 0.5% hydroxypropylmethylcellullose, Corcept Therapeutics) via oral gavage for 5 days, after which mice were killed by CO2 inhalation. Throughout the experiment, body weight was monitored and body composition was determined with EchoMRI™ (Frankfurt, Germany). After 5 days, blood was collected from the lateral tail vain in paraoxon-coated capillaries after a 6-h fast. Plasma triglyceride, total cholesterol, free fatty acid, glucose and insulin levels were determined using commercially available kits (Roche; Instruchemie, Delfzijl, Netherlands and Crystal Chem, Zaandam, Netherlands). Blood concentrations of the major leukocyte classes, that is, lymphocytes, monocytes and eosinophils, were determined in whole blood using an automatic veterinary hematology analysis (Sysmex XT-2000iV; Goffin Meyvis, Etten-Leur, the Netherlands).
(§2) In both acute and subchronic corticosterone experiments, relevant tissues (including quadriceps muscle, interscapular BAT, gonadal white adipose tissue (WAT), adrenals, spleen, thymus, pituitary and hippocampus) were collected to determine tissue weight and/or for further molecular analysis.
Novelty stress tests were performed in the morning (between 08:00–12:00 h) after 2 days of exposure to CORT125281. At t = 0, a blood sample was collected, after which mice were placed in a novel cage without bedding. After 10 min, a second blood sample was collected and mice were placed back in their original home cage.
For dual label in situ hybridization, frozen unfixed pituitaries were embedded in tissue-tek OCT (Sakura Finetek, Alphen aan den Rijn, Netherlands), sliced (12 µm) and collected on glass slides (Superfrost Plus, Thermo Fisher Scientific). Dual label in situ hybridization was performed using the QuantiGene ViewRNA ISH Tissue 2-Plex Assay (Thermo Fisher Scientific) and pictures were captured with a wide-field microscope (DM6B, Leica Microsystems). For 4-plex in situ hybridization, frozen, unfixed brain slices (12 µm) were collected on glass slides at bregma −0.772 mm (PVN) and −1.532 mm (hippocampus). 4-plex in situ hybridization was performed using the RNAScope fluorescent multiplex assay and RNAscope 4-plex ancillary kit (Advanced Cell Diagnostics, Newark, CA, USA) and Opal fluorophores 520, 570, 620 and 690 (PerkinElmer). Pictures were captured with a confocal microscope (SP8 WLL, Leica Microsystems). All pictures were analysed with ImageJ Software (NIH).

HPA-axis activity = test system: HPA-axis activity; design: method as in Kroon et al. 2018; conditions: ref Kroon et al. 2018; cited from earlier work
[2] = test system: GR transcriptional activity; experiment: Subchronic corticosterone exposure: RT-qPCR of GR and insulin target genes in tissues; type: in vivo, C57Bl/6J mice; conditions: corticosterone pellet 5 days, 60 mg/kg/day oral gavage
Method: as §1, §2
(§3) Total RNA was isolated from snap-frozen tissues using TriPure isolation reagent (Roche). After reverse transcription to cDNA (Promega), RT-qPCR was performed using IQ SYBR-Green supermix and MyIQ thermal cycler (Bio-RAD CFX96). Primers were tested for high efficiency (90–110%) and for amplification of a single PCR product. All primer sequences are listed in Supplementary Table 1 (see section on supplementary materials given at the end of this article), with the exception of Ncor1 and Ncor2 which were purchased from Qiagen. Fold change expression was calculated using the 2^−ΔΔ^CT method.

[3] = test system: GR transcriptional activity; experiment: Acute corticosterone exposure or basal conditions: RT-qPCR of GR target genes in tissues; type: in vivo, C57Bl/6J mice
Method: as §1, §2, §3

GR = conditions: ref Kroon et al. 2018; cited from earlier work
other nuclear receptors = test system: other nuclear receptors; design: method as in Kroon et al. 2018; conditions: ref Kroon et al. 2018; cited from earlier work
[4] = 60 mg/kg/day, corticosterone 1.5 mg/kg, liver
[5] = 60 mg/kg/day, without corticosterone exposure

Cn1ncc(S(=O)(=O)N2CC[C@H]3Cc4c(cnn4-c4ccc(F)cc4)C[C@]3(C(=O)c3cc(C(F)(F)F)ccn3)C2)n1 [CORT125281]
adrenal weights ([1]; 60 mg/kg/day): did not alter
peak and trough corticosterone levels ([1]; 60 mg/kg/day): did not alter
peak novelty stress-induced corticosterone levels ([1]; 60 mg/kg/day): slightly attenuated
slope of corticosterone during the recovery phase (t = 30 to 120 min) ([1]; 60 mg/kg/day, novelty stress): unaltered
GR (Nr3c1) mRNA expression in the anterior pituitary ([1]; 6-20 mg/kg/day): increased
expression of pro-opiomelanocortin (Pomc) in the anterior pituitary ([1]; 6-20 mg/kg/day): unaltered
weight of adrenals ([1]; 6-20 mg/kg/day): unaltered
basal peak or trough corticosterone levels ([1]; 6-20 mg/kg/day, 08:00 h and 18:00 h): did not alter
corticosterone levels after novelty stress ([1]; 6 and 20 mg/kg/day vs vehicle, all measured time points, day 2): similar
circulating levels of ACTH ([1]; 6 and 20 mg/kg/day, 18:00 on day 4): unchanged
diurnal corticosterone rhythm flattened by high-fat diet (HPA-axis activity): restored
expression of insulin target genes G6p and Pepck in liver, Glut4 and Lpl in WAT, Glut4 and Gsk3b in muscle [2]: did not affect
corticosterone-induced expression of GR target genes (Fkbp5, Gilz, Sgk1, Mt2a) ([2]; liver, muscle, BAT, WAT, hippocampus): did not prevent
corticosterone-induced mRNA of GR target genes in liver ([3]; 60 mg/kg/day via food 6 days, corticosterone 1.5 mg/kg s.c. 1 h before killing, liver): complete blockade
corticosterone-induced GR target genes in BAT ([3]; 60 mg/kg/day via food 6 days, corticosterone 1.5 mg/kg, BAT): inhibition of only a subset of corticosterone-induced genes
corticosterone-induced GR target genes in WAT ([3]; 60 mg/kg/day via food 6 days, corticosterone 1.5 mg/kg, WAT): no effects
corticosterone-induced GR target genes in hippocampus ([3]; 60 mg/kg/day via food 6 days, corticosterone 1.5 mg/kg, hippocampus): no effects
corticosterone-induced GR target genes in muscle ([3]; 60 mg/kg/day via food 6 days, corticosterone 1.5 mg/kg, quadriceps muscle): inhibition of only a subset of corticosterone-induced genes
corticosterone induction of G6pc in liver [3, 4]: a similar pattern was observed
corticosterone induction of Pepck in liver [3, 4]: blocked the induction
corticosterone induction of Murf1 in muscle ([3]; 60 mg/kg/day, corticosterone 1.5 mg/kg, muscle): completely blocked
mRNA levels of Gilz and G6p in liver ([3]; 60 mg/kg/day, intact animals without prior corticosterone exposure): inhibited mRNA levels
Cd36 expression in BAT [3, 5]: upregulated
GR target gene expression in WAT [3, 5]: did not affect
GR target gene expression in muscle [3, 5]: did not affect
expression of Sgk1 and Mt2a in hippocampus ([3]; 60 mg/kg/day, without corticosterone exposure, to a very modest extent): downregulated
antagonistic actions on corticosterone-induced genes in BAT ([3]; 6-20 mg/kg/day doses, BAT): completely lost
Mt2a expression in liver of solvent-injected mice ([3]; 6 and 20 mg/kg/day, solvent injection): inhibited
corticosterone-induced GR transcriptional activity of Fkbp5, Gilz, Sgk1 and Mt2a in liver ([3]; lower doses 6 and 20 mg/kg/day, 6 days, corticosterone 1 h before tissue collection): partially inhibited
GR transcriptional activity in WAT ([3]; lower doses 6 and 20 mg/kg/day, WAT): did not inhibit
dose required to attenuate corticosterone-induced expression of Fkbp5 and Gilz in liver ([3]; via food 6 days, liver): 20 mg/kg/day
dose sufficient to attenuate corticosterone-induced expression of Sgk1 and Mt2a in liver ([3]; via food 6 days, liver): 6 mg/kg/day
partial agonism at GR in reporter assays (GR): very low partial agonism
cross-reactivity with other nuclear receptors (other nuclear receptors): lacks cross-reactivity

Reference: paper PMC7274539, “The selective glucocorticoid receptor antagonist CORT125281 has tissue-specific activity” (The Journal of Endocrinology, 2020)
